According to ChEMBL document CHEMBL4261613, “Discovery of a potent orally bioavailable retinoic acid receptor-related orphan receptor-gamma-t (RORγt) inhibitor, S18-000003” (Bioorg Med Chem Lett, 2018):
Values after ≈ are worked out from the molar mass of the structure shown.

Key:
[1] = biological target: T1, Nuclear receptor ROR-gamma (Homo sapiens) (UniProt P51449); assay: (§1) Transrepression of recombinant human GAL4-DBD fused RORgammat LBD expressed in HEK293 cells after 20 hrs by luciferase reporter gene assay; format: cell-based
T1 sequence (whole entry): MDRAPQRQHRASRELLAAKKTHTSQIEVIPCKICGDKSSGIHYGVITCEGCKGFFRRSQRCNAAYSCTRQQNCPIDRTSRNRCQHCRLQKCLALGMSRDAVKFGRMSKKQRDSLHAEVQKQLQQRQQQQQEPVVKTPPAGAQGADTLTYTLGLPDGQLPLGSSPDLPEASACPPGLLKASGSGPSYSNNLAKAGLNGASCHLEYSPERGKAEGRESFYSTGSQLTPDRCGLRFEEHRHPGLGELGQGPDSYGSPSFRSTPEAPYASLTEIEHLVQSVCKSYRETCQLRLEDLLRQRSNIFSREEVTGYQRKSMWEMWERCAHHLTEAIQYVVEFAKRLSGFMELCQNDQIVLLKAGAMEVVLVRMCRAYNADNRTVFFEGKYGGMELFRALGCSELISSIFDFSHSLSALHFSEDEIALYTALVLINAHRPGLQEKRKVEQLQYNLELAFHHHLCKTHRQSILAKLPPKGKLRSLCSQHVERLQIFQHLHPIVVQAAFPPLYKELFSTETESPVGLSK

[2] = biological target: T2, Nuclear receptor ROR-gamma (Homo sapiens, UniProt P51449); assay: as §1; format: cell-based
T2 sequence (P51449 whole entry): T1 sequence (whole entry)

[3] = biological target: T3, Nuclear receptor ROR-gamma (Mus musculus) (UniProt P51450); assay: (§2) Transrepression of recombinant mouse GAL4-DBD fused RORgammat LBD expressed in HEK293 cells after 20 hrs by luciferase reporter gene assay; format: cell-based
T3 sequence (whole entry): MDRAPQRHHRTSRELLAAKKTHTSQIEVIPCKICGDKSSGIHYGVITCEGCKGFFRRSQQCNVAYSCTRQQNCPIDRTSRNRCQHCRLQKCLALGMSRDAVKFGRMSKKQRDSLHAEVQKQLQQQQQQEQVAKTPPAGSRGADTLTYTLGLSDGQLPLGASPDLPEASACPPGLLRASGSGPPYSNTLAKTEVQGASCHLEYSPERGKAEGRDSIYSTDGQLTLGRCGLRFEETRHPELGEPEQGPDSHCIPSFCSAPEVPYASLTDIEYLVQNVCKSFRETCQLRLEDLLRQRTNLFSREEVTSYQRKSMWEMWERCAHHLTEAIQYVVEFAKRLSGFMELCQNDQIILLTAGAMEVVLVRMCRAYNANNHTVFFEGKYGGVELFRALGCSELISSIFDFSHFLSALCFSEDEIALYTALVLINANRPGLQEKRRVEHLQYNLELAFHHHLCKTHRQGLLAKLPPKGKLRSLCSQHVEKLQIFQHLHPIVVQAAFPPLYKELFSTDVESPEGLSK

[4] = biological target: T4, Nuclear receptor ROR-gamma (Mus musculus, UniProt P51450); assay: as §2; format: cell-based
T4 sequence (P51450 whole entry): T3 sequence (whole entry)

[5] = biological target: T2, Nuclear receptor ROR-gamma; assay: Displacement of [3H]-Digoxin from recombinant human GST-fused RORgammat LBD after 1 to 4 hrs by scintillation counting method
[6] = biological target: T4, Nuclear receptor ROR-gamma; assay: Transrepression of RORgammat in anti-CD3/CD28 stimulated C57BL/6 mouse CD4-positive T cells assessed as suppression of T cell differentiation to Th17 cells by measuring reduction in IL-17A level after 4 days by ELISA
[7] = Stability in human liver microsomes assessed as parent compound remaining after 2 hrs by LC-MS/MS analysis; format: ADME, microsome; conditions: read-out: Stability
[8] = Stability in rat liver microsomes assessed as parent compound remaining after 2 hrs by LC-MS/MS analysis; format: ADME, microsome; conditions: read-out: Stability
[9] = Solubility of the compound in NaCl/HCl buffer at pH 1.2 by shake-flask method; format: physicochemical
[10] = Solubility of the compound in KH2PO4/Na2HPO4 buffer at pH 6.8 by shake-flask method; format: physicochemical
[11] = biological target: T5, Nuclear receptor ROR-alpha (Homo sapiens, UniProt P35398); assay: Displacement of [3H]T0901317 from recombinant human GST-fused RORalpha LBD after 1 to 4 hrs by microbeta scintillation counting method
T5 sequence (P35398 whole entry): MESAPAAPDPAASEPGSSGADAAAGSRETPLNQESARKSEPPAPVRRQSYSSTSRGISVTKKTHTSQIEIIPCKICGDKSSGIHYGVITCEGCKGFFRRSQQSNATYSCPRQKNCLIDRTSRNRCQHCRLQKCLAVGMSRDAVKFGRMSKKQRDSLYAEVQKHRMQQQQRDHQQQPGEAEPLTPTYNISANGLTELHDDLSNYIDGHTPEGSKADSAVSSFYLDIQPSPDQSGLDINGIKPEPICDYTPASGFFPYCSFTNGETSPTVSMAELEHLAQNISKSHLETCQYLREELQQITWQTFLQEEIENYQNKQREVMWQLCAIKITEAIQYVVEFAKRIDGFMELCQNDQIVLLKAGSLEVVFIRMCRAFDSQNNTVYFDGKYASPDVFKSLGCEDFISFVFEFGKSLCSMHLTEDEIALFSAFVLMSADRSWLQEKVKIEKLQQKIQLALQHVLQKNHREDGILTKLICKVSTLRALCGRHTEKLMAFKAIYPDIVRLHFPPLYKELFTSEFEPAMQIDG

[12] = biological target: T6, Nuclear receptor ROR-beta (Homo sapiens, UniProt Q92753); assay: Transrepression of recombinant human GAL4-DBD fused RORbeta LBD expressed in HEK293 cells after 20 hrs by luciferase reporter gene assay; format: cell-based
T6 sequence (Q92753 whole entry): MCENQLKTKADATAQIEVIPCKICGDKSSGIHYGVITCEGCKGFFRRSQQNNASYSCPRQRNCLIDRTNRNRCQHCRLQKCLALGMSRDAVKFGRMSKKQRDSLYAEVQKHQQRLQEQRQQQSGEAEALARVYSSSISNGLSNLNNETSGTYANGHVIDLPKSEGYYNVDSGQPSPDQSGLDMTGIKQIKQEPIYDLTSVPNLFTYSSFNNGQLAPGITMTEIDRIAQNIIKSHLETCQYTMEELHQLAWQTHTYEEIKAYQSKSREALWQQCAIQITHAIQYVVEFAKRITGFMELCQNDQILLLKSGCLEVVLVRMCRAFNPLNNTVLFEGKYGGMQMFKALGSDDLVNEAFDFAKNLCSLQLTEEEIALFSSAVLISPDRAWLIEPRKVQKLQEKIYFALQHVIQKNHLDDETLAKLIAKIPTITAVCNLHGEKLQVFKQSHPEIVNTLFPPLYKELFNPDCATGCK

[13] = biological target: T7, Oxysterols receptor LXR-alpha (Homo sapiens, UniProt Q13133); assay: Transrepression of recombinant human GAL4-DBD fused LXRalpha LBD expressed in HEK293 cells after 20 hrs by luciferase reporter gene assay; format: cell-based
T7 sequence (Q13133 whole entry): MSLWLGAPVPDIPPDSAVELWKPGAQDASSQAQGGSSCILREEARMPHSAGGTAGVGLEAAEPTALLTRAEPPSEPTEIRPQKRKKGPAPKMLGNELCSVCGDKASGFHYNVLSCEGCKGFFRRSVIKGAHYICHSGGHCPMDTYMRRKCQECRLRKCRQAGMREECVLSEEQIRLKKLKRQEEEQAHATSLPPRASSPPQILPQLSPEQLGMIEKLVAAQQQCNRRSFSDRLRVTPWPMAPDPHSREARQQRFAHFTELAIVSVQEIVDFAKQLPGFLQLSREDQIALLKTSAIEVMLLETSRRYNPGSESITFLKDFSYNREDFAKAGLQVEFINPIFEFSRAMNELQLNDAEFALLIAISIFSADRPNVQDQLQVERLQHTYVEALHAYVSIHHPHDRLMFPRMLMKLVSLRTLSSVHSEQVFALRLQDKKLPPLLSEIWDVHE

[14] = biological target: T8, Oxysterols receptor LXR-beta (Homo sapiens, UniProt P55055); assay: Transrepression of recombinant human GAL4-DBD fused LXRbeta LBD expressed in HEK293 cells after 20 hrs by luciferase reporter gene assay; format: cell-based
T8 sequence (P55055 whole entry): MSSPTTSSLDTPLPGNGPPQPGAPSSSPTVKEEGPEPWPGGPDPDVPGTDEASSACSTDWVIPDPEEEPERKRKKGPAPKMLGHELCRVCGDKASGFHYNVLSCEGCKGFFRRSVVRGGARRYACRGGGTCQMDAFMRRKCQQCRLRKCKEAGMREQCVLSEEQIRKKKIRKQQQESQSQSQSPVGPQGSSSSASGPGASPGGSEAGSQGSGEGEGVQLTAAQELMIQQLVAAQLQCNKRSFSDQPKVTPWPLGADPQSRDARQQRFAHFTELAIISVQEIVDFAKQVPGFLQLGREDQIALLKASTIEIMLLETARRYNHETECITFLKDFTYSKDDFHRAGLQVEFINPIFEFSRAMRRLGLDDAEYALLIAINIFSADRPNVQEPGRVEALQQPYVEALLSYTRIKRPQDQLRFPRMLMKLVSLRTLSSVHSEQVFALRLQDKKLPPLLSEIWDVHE

`CCS(=O)(=O)c1ccc(CC(=O)Nc2ccc(C(C)(C)C(=O)Nc3ccc(F)cc3)cc2)cc1` gave an Efficacy [1] of 93%, an IC50 [2] of 33 nM and an Efficacy [3] of 78%. It also gave an IC50 [4] of 550 nM, an IC50 [5] of less than 30 nM and an IC50 [6] of 1100 nM. For the same compound, the remaining at 2 h [7] was 75%, the remaining at 2 h [8] was 70% and the solubility thermodynamic [9] was 39 µM (≈ 18.8 µg/mL). For the same compound, the solubility thermodynamic [10] was 31 µM (≈ 15 µg/mL), the IC50 [11] was greater than 10000 nM and the IC50 [12] was greater than 10000 nM. For the same compound, the EC50 [13] was greater than 30000 nM and the EC50 [14] was greater than 30000 nM.
